Several values for one entry are separate records, joined by “and”; a condition that tells them apart may be missing. Identical values can stand only once.
Tests used:
[1] = tested on: Salt-Tolerant Esterase from the Deep-Sea Sediment of the South China Sea; conditions: literature enzyme in presence of metal ion; cited from earlier work
[2] = tested on: new true lipase isolated through metagenomic approach; conditions: literature enzyme in presence of metal ion; cited from earlier work
[3] = tested on: thermophilic and halophilic esterase from Janibacter sp. R02; conditions: literature enzyme in presence of metal ion; cited from earlier work
esterase enzyme [4] = assay: Effect of metals on enzyme activity; assay type: biochemical, microflora of Ac1göl (Aci Lake); conditions: the enzyme of the invention in presence of metal ion
[5] = tested on: heavy metal-resistant, thermophilic esterase from a Red Sea Brine Pool; conditions: literature enzyme in presence of metal ion; cited from earlier work
esterase enzyme [6] = assay: Effect of sodium chloride on enzyme activity; assay type: biochemical, microflora of Ac1göl (Aci Lake)
Protocol: (§1) 6. Standard activity test: Activity has been measured based on the pNP measurement that is obtained by the hydrolysis of the paranitfrophenol (pNP) esters by the enzyme (Winkler and Stuckmann, 1979). The final concentration of the enzyme and substrate have been 1 μM and 1 mM respectively and absorbance measurements have been taken at 410 nm. The activity has been calculated by means of the below formula and one unit of activity has been defined as the enzyme amount which produces 1 μmol product in 1 minute.
(§2) Activity (U/L)=[(ΔAbs/t)/(ε*d)]*106*Vt/Vs • ΔAbs=Absorbance change; t=time (minute); ε=extinction coefficient (M−1 cm−1); d=light path (cm); Vt=total reaction volume; Vs=enzyme volume used in reaction.
(§3) The effect of sodium chloride on the activity (5%, 10%, 15%, 20% and 25% NaCl) and the stability (10%, 15%, 20% and 25% NaCl) of the enzyme has been determined similarly. The enzyme has been incubated in a buffer solution comprising sodium chloride at the defined amounts for 24 hours during stability tests.

esterase enzyme [7] = assay: Effect of sodium chloride on enzyme stability (24 hours incubation); assay type: biochemical, microflora of Ac1göl (Aci Lake)
Protocol: as §1, §2, §3

esterase enzyme [8] = assay: Effect of solutions (solvents) on enzyme activity; assay type: biochemical, microflora of Ac1göl (Aci Lake); conditions: 10% solution added into the reaction
Protocol: (§4) 6. […] The final concentration of the enzyme and substrate have been 1 μM and 1 mM respectively and absorbance measurements have been taken at 410 nm. The activity has been calculated by means of the below formula and one unit of activity has been defined as the enzyme amount which produces 1 μmol product in 1 minute.
as §2
(§5) Additionally, the effect of different solutions (hexane, chloroform, acetone, dimethyl formamide (DMF), dimethyl sulphoxide (DMSO), 2-propanol, butanol, 1-propanol, ethanol, methanol and glycerol) on the activity and stability of the enzyme have been measured. In the activity tests, 10% solution has been added into the reaction and in the stability tests the enzyme has been incubated for 24 hours in a buffer solution containing 15% and 30% solution.

esterase enzyme [9] = assay: Effect of solutions (solvents) on enzyme stability (24 hours incubation); assay type: biochemical, microflora of Ac1göl (Aci Lake); conditions: for Effect of solutions on stability, Activity (%) 15% Solution: enzyme incubated 24 hours in buffer containing 15% solution; for Effect of solutions on stability, Activity (%) 30% Solution: enzyme incubated 24 hours in buffer containing 30% solution
Protocol: as §4, §2, §5

[10] = Effect of temperature on enzyme activity (standard pNP ester activity test); assay type: biochemical, microflora of Ac1göl (Aci Lake)
Protocol: as §1, §2
(§6) The reaction has been carried out under different temperatures (5° C.-70° C.) in order to determine the optimum temperature in which the enzyme works efficiently, and the activity has been measured. In order to determine the thermal stability of the enzyme, the enzyme has been incubated for 20 minutes between 25° C.-80° C. temperature and the remaining activity has been measured according to standard tests.

[11] = assay type: biochemical, microflora of Ac1göl (Aci Lake)
Protocol: as §1, §2
(§7) 8. Measuring the activity and stability of the enzyme under different conditions: Reactions have been carried out in buffer solutions (50 mM citrate/phosphate buffer, pH 6; 50 mM Tris-HCl buffer, pH 7, 8 and 8.5; 50 mM glycine-NaOH buffer, pH 9, 9.5 and 10) having different pH values in order to determine the optimum pH value in which the enzyme works. Moreover, in order to measure the pH stability of the enzyme, the enzyme has been incubated for 24 hours before reaction in these buffer solutions and the activity value remaining at the end of the incubation has been calculated.

[12] = assay type: biochemical, microflora of Ac1göl (Aci Lake); remark: listed apart in the source
Protocol: as §1, §2, §6

[13] = Effect of pH on enzyme activity; assay type: biochemical, microflora of Ac1göl (Aci Lake)
Protocol: as §1, §2, §7

## [K+] [K^+]
[1]
  Metal tolerance, Zhang et al, 2017: 108
[2]
  Metal tolerance, Glogauer et al, 2011: 122
[3]
  Metal tolerance, Castilla et al, 2017: 90
Esterase enzyme [4]
  Metal tolerance, This study: 128

## [Mg+2] [mg^2+]
[1]
  Metal tolerance, Zhang et al, 2017: 97
[2]
  Metal tolerance, Glogauer et al, 2011: 65
[3]
  Metal tolerance, Castilla et al, 2017: 160
[5]
  Metal tolerance, Mohamed et al, 2013: 91
Esterase enzyme [4]
  Metal tolerance, This study: 130

## [Al+3] [Al^3+]
[2]
  Metal tolerance, Glogauer et al, 2011: 45
Esterase enzyme [4]
  Metal tolerance, This study: 91

## [Ag+] [Ag^+]
[2]
  Metal tolerance, Glogauer et al, 2011: 8
Esterase enzyme [4]
  Metal tolerance, This study: 32

## [Mn+2] [Mn^2+]
[1]
  Metal tolerance, Zhang et al, 2017: 76
[2]
  Metal tolerance, Glogauer et al, 2011: 47
[3]
  Metal tolerance, Castilla et al, 2017: 75
[5]
  Metal tolerance, Mohamed et al, 2013: 112
Esterase enzyme [4]
  Metal tolerance, This study: 130

## [Cl-].[Na+] [sodium chloride]
Esterase enzyme [6]; Concentration 1 %
  The effect of sodium chloride on activity, Activity (%): 100 ± 1.9%
Esterase enzyme [6]; Concentration 5 %
  The effect of sodium chloride on activity, Activity (%): 90.2 ± 2.1%
Esterase enzyme [6]; Concentration 10 %
  The effect of sodium chloride on activity, Activity (%): 79.2 ± 5%
Esterase enzyme [6]; Concentration 15 %
  The effect of sodium chloride on activity, Activity (%): 52 ± 5.3%
Esterase enzyme [6]; Concentration 20 %
  The effect of sodium chloride on activity, Activity (%): 39.2 ± 6.3%
Esterase enzyme [7]; Concentration 10.0 %
  The effect of sodium chloride on stability, Activity (%): 100 ± 4.8%
Esterase enzyme [7]; Concentration 15.0 %
  The effect of sodium chloride on stability, Activity (%): 99 ± 1.8%
Esterase enzyme [7]; Concentration 20.0 %
  The effect of sodium chloride on stability, Activity (%): 102.7 ± 1%
Esterase enzyme [7]; Concentration 25.0 %
  The effect of sodium chloride on stability, Activity (%): 101.4 ± 4.5%

## 1-propanol
Esterase enzyme [8]
  Effect of solutions on activity, Activity (%): 2.6 ± 2.4%
Esterase enzyme [9]
  Effect of solutions on stability, Activity (%) 15% Solution: 85.7 ± 2.6%
  Effect of solutions on stability, Activity (%) 30% Solution: 23.3 ± 5.4%

## [Co+2] [Co^2+]
[1]
  Metal tolerance, Zhang et al, 2017: 85
[2]
  Metal tolerance, Glogauer et al, 2011: 54
[3]
  Metal tolerance, Castilla et al, 2017: 50
[5]
  Metal tolerance, Mohamed et al, 2013: 104
Esterase enzyme [4]
  Metal tolerance, This study: 113

## [Cu+2] [Cu^2+]
[1]
  Metal tolerance, Zhang et al, 2017: 82
[3]
  Metal tolerance, Castilla et al, 2017: 60
[5]
  Metal tolerance, Mohamed et al, 2013: 95
Esterase enzyme [4]
  Metal tolerance, This study: 118

## [Ni+2] [Ni^2+]
[1]
  Metal tolerance, Zhang et al, 2017: 68
[2]
  Metal tolerance, Glogauer et al, 2011: 66
[3]
  Metal tolerance, Castilla et al, 2017: 75
Esterase enzyme [4]
  Metal tolerance, This study: 110

## C[S+](C)[O-] [DMSO, dimethyl sulphoxide]
Esterase enzyme [8]
  Effect of solutions on activity, Activity (%): 92%
Esterase enzyme [9]
  Effect of solutions on stability, Activity (%) 15% Solution: 106.1 ± 0.9%
  Effect of solutions on stability, Activity (%) 30% Solution: 102.2 ± 4.8%

## CN(C)C=O [DMF, dimethyl formamide]
Esterase enzyme [8]
  Effect of solutions on activity, Activity (%): 33.2 ± 7.0%
Esterase enzyme [9]
  Effect of solutions on stability, Activity (%) 15% Solution: 121.3 ± 1.6%
  Effect of solutions on stability, Activity (%) 30% Solution: 105.3 ± 1.6%

## [Ca+2] [Ca^2+]
[1]
  Metal tolerance, Zhang et al, 2017: 95
[2]
  Metal tolerance, Glogauer et al, 2011: 73
[3]
  Metal tolerance, Castilla et al, 2017: 110
[5]
  Metal tolerance, Mohamed et al, 2013: 95
Esterase enzyme [4]
  Metal tolerance, This study: 130

## [Fe+2] [Fe^2+]
[1]
  Metal tolerance, Zhang et al, 2017: 85
[2]
  Metal tolerance, Glogauer et al, 2011: 33
[3]
  Metal tolerance, Castilla et al, 2017: 55
Esterase enzyme [4]
  Metal tolerance, This study: 116

## CC(C)O [2-Propanol, 2-propanol]
Esterase enzyme [8]
  Effect of solutions on activity, Activity (%): 21.4 ± 1.6%
Esterase enzyme [9]
  Effect of solutions on stability, Activity (%) 15% Solution: 104.3 ± 1.2%
  Effect of solutions on stability, Activity (%) 30% Solution: 62.3 ± 4.3%

## CCO [Ethanol, ethanol]
Esterase enzyme [8]
  Effect of solutions on activity, Activity (%): 45.1 ± 0.3%
Esterase enzyme [9]
  Effect of solutions on stability, Activity (%) 15% Solution: 105.9 ± 4.7%
  Effect of solutions on stability, Activity (%) 30% Solution: 98.2 ± 0.5%

## [Zn+2] [Zn^2+]
[1]
  Metal tolerance, Zhang et al, 2017: 25
[2]
  Metal tolerance, Glogauer et al, 2011: 45
[3]
  Metal tolerance, Castilla et al, 2017: 160
[5]
  Metal tolerance, Mohamed et al, 2013: 85
Esterase enzyme [4]
  Metal tolerance, This study: 6

B1: enzyme: novel esterase (SEQ ID NO: 2, 260 amino acids) obtained by metagenomic method from the microflora of Ac1göl (protein)
chain: MTVDLNHLDTGGEGIPLVVIHGLLGSADNWRSHVKQWQQQCRVVAVDLRNHGRSPHADGMSYAAMAADLEALLDRLGIERAHLLGHSMGGKVAISVARLHPQRVASLIVADIAPQAYGHDHDAVFAGLRRVEQGQPGNRREADALLAEHVEERAVRLFLATNLERDDDGILRLRIGLDEIEGDYDAIMQAPAGEGSYDGPVLVLRGDRSPYVTDAMLPRLHQVLPQAQLVTLENAGHWLHAEQPEAFQAAVNDFLASLEA
modifications: Metagenomic Sequence
[10]
  temperature of best activity: 30 °C
[10]; reaction at 5 ° C.
  Effect of temperature on activity, Activity (%): 47% and 46.6 ± 6.1%
[10]; reaction at 10 ° C.
  Effect of temperature on activity, Activity (%): 53.8 ± 7.4%
[10]; reaction at 15 ° C.
  Effect of temperature on activity, Activity (%): 63% and 63.1 ± 5.1%
[10]; reaction at 20 ° C.
  Effect of temperature on activity, Activity (%): 76.9 ± 4.4%
[10]; reaction at 25 ° C.
  Effect of temperature on activity, Activity (%): 93.1 ± 6.3%
[10]; reaction at 30 ° C.
  Effect of temperature on activity, Activity (%): 100 ± 4.8%
[10]; reaction at 35 ° C.
  Effect of temperature on activity, Activity (%): 94.4 ± 1.5%
[10]; reaction at 40 ° C.
  Effect of temperature on activity, Activity (%): 82.4 ± 2.8%
[10]; reaction at 45 ° C.
  Effect of temperature on activity, Activity (%): 22.5 ± 0.8%
[10]; reaction at 50 ° C.
  Effect of temperature on activity, Activity (%): 17.7 ± 0.3%
[10]; reaction at 55 ° C.
  Effect of temperature on activity, Activity (%): 14.4 ± 4.5%
[10]; reaction at 60 ° C.
  Effect of temperature on activity, Activity (%): 12.9 ± 2.9%
[10]; reaction at 65 ° C.
  Effect of temperature on activity, Activity (%): 11.1 ± 4.2%
[10]; reaction at 70 ° C.
  Effect of temperature on activity, Activity (%): 8.2 ± 0.8%
[11]
  pH up to which the enzyme maintained its stability: ≤ 10 pH
[12]
  temperature up to which the enzyme maintained the stability: up to 55 °C
[13]
  pH value at which the enzyme worked best: 9 pH
[13]; pH 6
  The effect of pH on activity, Activity (%): 10.3 ± 4.1%
[13]; pH 7
  The effect of pH on activity, Activity (%): 68.8 ± 8.2%
[13]; pH 8
  The effect of pH on activity, Activity (%): 77.1 ± 6.8%
[13]; pH 8.5
  The effect of pH on activity, Activity (%): 84 ± 5.2%
[13]; pH 9
  The effect of pH on activity, Activity (%): 100 ± 1.3%
[13]; pH 9.5
  The effect of pH on activity, Activity (%): 84.9 ± 1.5%
[13]; pH 10
  The effect of pH on activity, Activity (%): 20 ± 8.1%
